Assays:
C/EBPβ gene expression = assay: RT-qPCR gene expression in TG/FA-treated hiPSC-Hep; format: cell-based, human; settings: 24 h pre-treatment then TG/FA 18 h; relative to TG/FA
Protocol: (§1) To explore the signaling partners triggered or altered by the drugs, we performed gene expression RT-qPCR. The hiPSC-Hep were pre-treated in a 24-well plate with the three compounds shown in Figure 7 for 24 h followed by TG/FA challenge for an additional 18 h and RNA from each treatment well was isolated. The pre-treatment paradigm was chosen to stay consistent with how the original HTS was performed. We analyzed several target gene expression levels in the C/EBP-EP300 pathway including CDK2, CDK4, C/EBPα and C/EBPβ, EP300, and diacylglycerol acyltransferase 2 (DGAT2).
(§2) RNA was isolated from hiPSC-derived hepatocytes using the RNeasy kit (Qiagen, Frederick) and subsequently subjected to DNase digestion (Qiagen). Total RNA was quantified using NanoDrop 8000 (Thermo Scientific). The quality of total RNA was assessed by the Agilent Bioanalyzer Nano chip (Agilent Technologies) and RNA integrity number (RIN) ranged from 9.7 to 10. Reverse transcription was performed using the high capacity cDNA reverse transcription kit (Applied Biosystems, Foster City, CA, USA) according to the manufacturer’s recommendation and the complementary DNA (cDNA) obtained used for real-time quantitative PCR. The reaction mixture (10 μL), containing 1 μL of cDNA template, 0.5 μL each of primer and probe (20×, Thermo Fisher Scientific) mix for the gene of interest plus the reference gene and TaqMan Universal PCR master mix (Applied Biosystems) was added to the opaque white 384-well plates and amplified as follows: after 2 min of initial incubation at 50 °C and 10 min of initial denaturation at 95 °C, 45 cycles at 95 °C for 15 s, 60 °C for 1 min for annealing and 1 sec at 72 °C for final extension were performed. Assays were designed to have primers/probes to span exon–exon junctions (Table S1). Direct detection of PCR products was monitored by measuring the fluorescence produced by the result of TaqMan probe hydrolysis after every cycle. All experiments were carried out in triplicate in a LightCycler 480 thermocycler (Roche Diagnostic). Relative gene expression from qPCR data between groups of samples were assessed using a ∆∆Cq method. To adjust for variations in the cDNA synthesis each gene was normalized to that of hypoxanthine phosphoribosyl transferase 1 (HPRT1] or GAPDH mRNA.

DGAT2 mRNA = assay: RT-qPCR gene expression in TG/FA-treated hiPSC-Hep; format: cell-based, human; settings: dose-dependent, under condition of hepatic steatosis (TG/FA)
Protocol: as §1, §2

CDK5 = test system: CDK5; set-up: method as in AstraZeneca data repository; settings: median log of IC50/EC50/Ki/Kd annotations, highest value; ref AstraZeneca data repository; cited from earlier work

Compound	effect on C/EBPβ gene expression (C/EBPβ gene expression)	DGAT2 mRNA level decreased by (DGAT2 mRNA)	pXC50 CDK5 (CDK5)
Cc1ncc(-c2nc(Nc3ccc(N4CCN(C(=O)CO)CC4)cc3)ncc2F)n1C(C)C [C3]	no effect	46%	
CNC(=O)c1nn(C)c2c1C(C)(C)Cc1cnc(Nc3ccc(N4CCN(C)CC4)cc3)nc1-2 [C16, Milciclib]			6.58
